# Laboratory results from patent US20070166317A1, “Microparticles” (priority 2003, published 2007).
# Key:
# [1] = test system: CHO cells; test: Cellular association of peptide modified latex microparticles, confocal microscopy, CHO cells; format: cell-based, Chinese Hamster; conditions: 3 hours at 37° C., 10 ng peptide/μg Sigma carboxylate modified latex, 0.15 μg latex/μL of media, FIG. 4
# Procedure: (§1) Latex (50 to 100 μL) was added to PBS (890 to 945 μL) followed by peptide solution (5 to 10 μL) and the resultant 1 mL solution mixed. The material was left to stand at room temperature for 2 hours and then dialysed over night against 2 L of PBS in the dark at 4° C. The particles were then recovered stored at 4° C. in the dark and used without further treatment.
# (§2) CHO stock culture was grown in Ham's F12 media supplemented with 10% foetal bovine serum, glutamine (2 mM), fungizone (50 mg/ml) and pen-strep (0.1 mg/ml). Cells were seeded at 1 to 2×10^4 cell/cm^2 using 0.25% trypsin-EDTA and maintained in a humidified 5% CO2 atmosphere, at 37° C. and sub-cultured twice a week.
# (§3) Prior (48 hr) to an experiment CHO or HFFF2 cells were plated at 2×10^4/cm^2 in an 8 well chamber slide, 0.7 cm^2 and 0.2 mL/chamber. One day before the experiment, media was replaced with a similar media but containing no lipids. On the day of the experiment, the cells for 4° C. incubation were chilled for 15 minutes prior to any additions. The wells were washed with 0.1 mL of phosphate buffered saline (PBS) and the synthetic LDL system in media added. The slides were then incubated for 1 or 3 hours at either 4° C. or 37° C. the latter in a humidified 5% CO2 atmosphere. […] The lens employed was ×20 PA with a numerical aperture of 0.75 and the data analysed using “Laser-sharp” software (Bio-Rad).
# [2] = target: T1, LDL receptor (Homo sapiens, UniProt P01130); test: Effect of anti-LDL receptor antibody on cellular association of peptide modified latex, normal fluorescent microscopy, HFFF-2 cells; format: cell-based; conditions: 3 hours at 37° C., antibody 8 μg/mL, peptide on Sigma carboxylate modified latex, 0.15 μg latex/μL, FIG. 6
# T1 construct: endogenous in cells; host or cells: HFFF-2 fibroblast cells (ECACC 86031405)
# T1 sequence (P01130 22-860): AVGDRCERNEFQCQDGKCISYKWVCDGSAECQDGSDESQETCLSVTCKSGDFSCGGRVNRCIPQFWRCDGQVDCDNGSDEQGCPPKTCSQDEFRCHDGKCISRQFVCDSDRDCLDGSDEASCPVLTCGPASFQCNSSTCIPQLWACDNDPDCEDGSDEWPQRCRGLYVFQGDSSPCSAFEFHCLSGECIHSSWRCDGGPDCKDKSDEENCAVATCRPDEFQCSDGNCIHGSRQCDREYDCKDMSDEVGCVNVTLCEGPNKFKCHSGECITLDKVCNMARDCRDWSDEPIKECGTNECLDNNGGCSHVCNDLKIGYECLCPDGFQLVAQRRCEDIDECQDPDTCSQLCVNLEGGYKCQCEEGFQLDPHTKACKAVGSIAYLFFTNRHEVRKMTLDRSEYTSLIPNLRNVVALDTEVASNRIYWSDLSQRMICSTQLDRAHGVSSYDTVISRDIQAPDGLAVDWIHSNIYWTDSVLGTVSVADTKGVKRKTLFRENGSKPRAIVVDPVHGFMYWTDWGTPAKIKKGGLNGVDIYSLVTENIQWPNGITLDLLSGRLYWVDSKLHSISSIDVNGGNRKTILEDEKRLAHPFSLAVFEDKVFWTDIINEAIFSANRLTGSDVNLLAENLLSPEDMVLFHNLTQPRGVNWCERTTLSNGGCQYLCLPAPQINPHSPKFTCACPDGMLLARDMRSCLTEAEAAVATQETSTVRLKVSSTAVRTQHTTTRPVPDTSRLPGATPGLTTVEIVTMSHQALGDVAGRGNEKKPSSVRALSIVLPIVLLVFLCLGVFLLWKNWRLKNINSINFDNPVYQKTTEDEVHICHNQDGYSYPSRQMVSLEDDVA
# Procedure: as §1
# as §2, with “HFFF2 stock” for “CHO stock”, “in Dulbecco's modified Eagle's” for “in Ham's F12”, “10% v/v” for “10%”, “at 2” for “at 1”, “to 3×10^4” for “to 2×10^4”
# Prior (48 hr) to an experiment CHO or HFFF2 cells were plated at 2×10^4/cm^2 in an 8 well chamber slide, 0.7 cm^2 and 0.2 mL/chamber. One day before the experiment, media was replaced with a similar media but containing no lipids. On the date of the experiment, the cells for 4° C. incubation were chilled for 15 minutes prior to any additions. The wells were washed with 0.1 mL of phosphate buffered saline (PBS) and the synthetic LDL microparticle system, in media, added. The slides were then incubated for 1 or 3 hours at either 4° C. or 37° C. the latter in a humidified 5% CO2 atmosphere. […]
# [3] = target: T1, LDL receptor; test: Effect of anti-LDL receptor antibody on cellular association of peptide modified latex, confocal microscopy, HFFF-2 cells; format: cell-based; conditions: 3 hours at 37° C., antibody 8 μg/mL, peptide on Fluoresbrite latex, 0.15 μg latex/μL, FIG. 5
# Procedure: as §1
# as §2, with “HFFF2 stock” for “CHO stock”, “in Dulbecco's modified Eagle's” for “in Ham's F12”, “10% v/v” for “10%”, “at 2” for “at 1”, “to 3×10^4” for “to 2×10^4”
# as §3
Substance,"cellular association of peptide modified latex (rank order between peptides, fluorescence) [1]",reduction of cellular association by anti-LDL receptor antibody (normal fluorescent microscopy) [2],reduction of cellular association by anti-LDL receptor antibody (confocal microscopy) [3]
peptide 3: Retinoic Acid-Tyr-Lys-Leu-Glu-Gly-Thr-Thr-Arg-Leu-Thr-Arg-Lys-Arg-Gly-Leu-Lys-Leu-Ala-Thr-Ala-Leu-Ser-Cholesterol ({retinoic acid}-YKLEGTTRLTRKRGLKLATALS-cholesterol),increased cellular association for peptide 4 followed by peptide 3 and then peptide 1,the reduction due to the presence of the antibody is clearly visible,–
peptide 4: Pyrene Butyric Acid-Lys-Leu-Glu-Gly-Thr-Thr-Arg-Leu-Thr-Arg-Lys-Arg-Gly-Leu-Lys-Leu-Ala-Thr-Ala-Leu-Ser-Leu-Phe-Leu-Phe-Cholesterol ({pyrene butyric acid}-KLEGTTRLTRKRGLKLATALSLFLF-cholesterol),increased cellular association for peptide 4 followed by peptide 3 and then peptide 1,–,the reduction is not as great
